Data taken from patent publication US20130131146A1, “Compositions and Methods for Treating Pulmonary Conditions” (THE JOHNS HOPKINS UNIVERSITY, priority 2010, published 2013).
Entries after “also recorded” stand apart in the source; their conditions may differ. Like-named read-outs stand apart in the source and are kept apart here.

What was measured:
[1] = test system: Pa-LPS-induced lung injury; assay type: in vivo, mice
[2] = test system: chronic-CS induced lung inflammation and emphysema; experiment: Chronic cigarette smoke (24 weeks) induced lung inflammation and emphysema in C57BL/6 mice; assay type: in vivo
From the text: Scale: white/black bar-50 μm.

[3] = test system: neutral SMase; details: at 5 mM GSH; cited from earlier work
[4] = test system: ZO-2; experiment: Lipid-raft ZO-2 expression by Western blotting in CFBE41o- and CFBE41o-WT-CFTR cells; assay type: cell-based, human
[5] = test system: NFκB promoter; experiment: NFκB luciferase reporter assay in CFBE41o-wt-CFTR and CFBE41o- cells; assay type: cell-based, human; details: CFBE41o-wt-CFTR cells; 10 ng/ml TNFα, 50 μM FB1, 12 hours; p<0.05; only in the presence of cell surface CFTR
From the text: The BALF and cell culture supernatants (n=3-5) were quantified in triplicate for mouse IL-6, IL-1β, or human IL-8 using ELISA kits (R&D Systems, or eBioscience, San Diego, Calif.) following the manufacturer's instructions. MPO levels in neutrophil culture supernatant or mouse BALF were similarly quantified using the MPO ELISA kit (Hycult Biotechnology, Uden, The Netherlands). For reporter assays, CFBE41o-WT-CFTR or CFBE41o-cells were transfected with NF-KB firefly luciferase promoter (pGL2) and renilla luciferase (pRLTK) control using Lipofectamine 2000 (Invitrogen). Renilla luciferase was used as an internal control for normalization of DNA and transfection efficiency of reporter constructs. […] Data were normalized with internal renilla luciferase control for each sample, and the changes in reporter activities with CFTR overexpression were calculated.

[6] = test system: membrane ceramide; experiment: ZO-1/ceramide co-immunostaining and confocal imaging of CFBE41o-WT-CFTR cells; assay type: cell-based, human; details: 6 hrs
[7] = test system: NFκB; experiment: NFκB immunostaining of CFBE41o-WT-CFTR cells after lipid-raft CFTR depletion; assay type: cell-based, human; details: 5 mM CD, 6 hrs, ± 10 ng/ml Pa-LPS
[8] = test system: IL-8; experiment: IL-8 secretion ELISA in CFBE41o-WT-CFTR cells; assay type: cell-based, human; details: 5 mM CD, 24 hours; p<0.001
[9] = test system: lipid-raft CFTR; experiment: Intratracheal CD treatment of Cftr+/+ mice, lung immunofluorescence staining; assay type: in vivo, C57BL/6 mice; details: CD 75 μg/mouse i.t. for 3 days
Procedure: All animal experiments were carried out in accordance with the Johns Hopkins University (JHU) Animal Care and Use Committee (ACUC) approved protocols. Age-, weight-, and sex-matched (24 wk old), B6-12956-Cftr^−/− (Cftrtm^1Kthc-TgN(^FABPCFTR)) (30, 31) and Cftr^+/+ inbred mice strains (procured from Case Western Reserve University Animal Resource Center, Cleveland, Ohio; n=3-5 for all experiments). The changes in cytokine and inflammatory markers between Cftr^+/+and Cftr^−/− mice were verified by multiple (2, 3) experiments, and representative data are shown. All mice were housed in a controlled environment and pathogen-free conditions. […] Mice were sacrificed 24 h after drug treatment, and the bronchoalveolar lavage fluid (BALF) was collected for cytokine ELISAs. The lungs were fixed in 10% buffered formalin phosphate (Fisher Scientific, Pittsburgh, Pa.), paraffin embedded, and cut into longitudinal sections (5 μm thick) on glass slides for immunostaining. For depletion of membrane-CFTR in murine lungs, 72-h i.t. CD treatment was used, and lung tissues were collected as above. The mice (three to four mice per group, 8 to 10 wk old) were exposed to cigarette smoke (CS) using the TE-2 cigarette smoking machine (Teague Enterprises, Davis, Calif.). […] An average total particulate matter of 150 mg/m^3 was recorded in real time during the smoking protocols. […] The human lung tissue samples from Gold stage I (mild, forced expiratory volume [FEV1]% predicted>80%), Gold stage 11 (moderate, FEV1% predicted=˜50-80%), and Gold stage III-IV (severe/very severe, FEV1% predicted <50%) nontumor COPD (with FEV1/forced vital capacity [FVC] ratio of <70%) and Gold stage 0 (at risk) control subjects (procured from Lung Tissue Research Consortium [Bethesda, Md.], National Heart, Lung and Blood Institute, National Institutes of Health) were used for quantification and localization of indicated proteins by immunostaining All the subjects were stable, and Gold I-IV subjects had emphysema. […]

[10] = test system: lipid-raft Fas and CFTR; experiment: Immunoblotting of lung lipid-raft protein fraction from CD treated and/or sub-chronic CS exposed Cftr+/+ mice; assay type: in vivo; details: CD i.t. 2×50 μg
[11] = Cftr+/+ mice, Pa-LPS i.t. 12 h, then drug i.t. 24 h
[12] = Cftr-/- mice, Pa-LPS i.t. 12 h, then drug i.t. 24 h

## CN(C)CCC=C1c2ccccc2CCc2ccccc21 [AMT, Amitriptyline]
[1]; Cftr+/+ mice, FIG. 4B legend
  protection against Pa-LPS-induced lung injury: relatively less protective
[1]; [11]
  Pa-LPS-induced IL-1b secretion (BALF): unable to rescue
  Pa-LPS-induced IL-6 (BALF): unable to rescue
[1]; Cftr-/- mice, FIG. 4B legend
  inflammatory cytokines (BALF): effectively controls
[1]; [12]
  Pa-LPS-induced IL-1b levels (BALF): significant decrease
  Pa-LPS-induced IL-6 (BALF): significant decrease

## CCCCCCCCCC(=O)N[C@H](CN1CCOCC1)[C@H](O)c1ccccc1 [D-PDMP]
[2]; chronic-CS 24 weeks, 50 μg/mouse
  CS induced inflammation and emphysema (H&E): significant decrease
[2]; chronic-CS 24 weeks, 50 μg/mouse, p<0.05
  chronic-CS induced LacCer-accumulation (lung immunostaining): significantly downregulated
[2]; chronic-CS 24 weeks, p=0.0016
  alveolar space enlargement (alveolar diameter, morphometric analysis): significantly controlled
[2]; chronic-CS exposed mice, n=3, p=0.009
  BALF IL-6 levels: rescued to basal levels
[2]; flow cytometry, p<0.01
  chronic-CS induced macrophage (F4/80-positive cells) infiltration in BALF: significantly controls

## N[C@@H](CCC(=O)N[C@@H](CS)C(=O)NCC(=O)O)C(=O)O [Glutathione]
[3]
  inhibition of neutral SMase: greater than 95%

## Fumonisin B1 [FB1]
[1]; Cftr+/+ mice, FIG. 4A
  Pa-LPS-induced IL-10 (BALF): significantly decreases
[1]; [11]
  Pa-LPS-induced IL-1b secretion (BALF): very significant decrease
  Pa-LPS-induced IL-6 (BALF): significantly decreases
[1]; Cftr+/+ mice, Pa-LPS i.t. 12 h, then drug i.t. 24 h, p<0.05
  reduction in the Pa-LPS-induced IL-6 levels (BALF): 2 fold
[1]; [12]
  Pa-LPS-induced IL-1b levels (BALF): unaltered
  Pa-LPS-induced IL-6 (BALF): decreased; also recorded: modest effect
[4]; CFBE41o- cells (no functional CFTR), Pa-LPS 10 ng/ml or FB1 50 μM, 24 h
  lipid-raft ZO-2 expression: neither Pa-LPS nor FB1 is able to modulate
[4]; in the presence of WT-CFTR (CFBE41o-WT-CFTR cells)
  lipid-raft ZO-2 expression: downregulated
[5]
  TNFα mediated NFκB promoter activity: inhibits

## TNFα
[6]; TNFα 10 ng/ml with CD 5 mM
  CD induced membrane ceramide accumulation: depletes

## methyl-β-cyclodextrin [CD]
[7]
  CFTR control of NFκB signaling: abrogates its control of NFκB signaling
[8]
  IL-8 chemokine levels: significantly induces
[9]
  NFκB activity (lung immunofluorescence): induces
  expression of lipid-raft marker (ZO-2): significant increase
  neutrophil chemotaxis (NIMPR14): induces
[6]; CD 5 mM
  ceramide accumulation on the cell surface and lipid rafts: increases
[10]
  lipid-raft CFTR levels: decrease
  lipid-raft Fas expression: increases
